Laboratory results as given in US10112926B2 (priority 2014, dated 2018).
pIC50: −log10 of the molar value. Counter-ions that a name gives are not always drawn.

molecular target: PI 4-kinase beta (Homo sapiens (Human), UniProt Q9UBF8); conditions: read-out: Assay D PI4Kβ IC50
Sequence (Q9UBF8 whole entry): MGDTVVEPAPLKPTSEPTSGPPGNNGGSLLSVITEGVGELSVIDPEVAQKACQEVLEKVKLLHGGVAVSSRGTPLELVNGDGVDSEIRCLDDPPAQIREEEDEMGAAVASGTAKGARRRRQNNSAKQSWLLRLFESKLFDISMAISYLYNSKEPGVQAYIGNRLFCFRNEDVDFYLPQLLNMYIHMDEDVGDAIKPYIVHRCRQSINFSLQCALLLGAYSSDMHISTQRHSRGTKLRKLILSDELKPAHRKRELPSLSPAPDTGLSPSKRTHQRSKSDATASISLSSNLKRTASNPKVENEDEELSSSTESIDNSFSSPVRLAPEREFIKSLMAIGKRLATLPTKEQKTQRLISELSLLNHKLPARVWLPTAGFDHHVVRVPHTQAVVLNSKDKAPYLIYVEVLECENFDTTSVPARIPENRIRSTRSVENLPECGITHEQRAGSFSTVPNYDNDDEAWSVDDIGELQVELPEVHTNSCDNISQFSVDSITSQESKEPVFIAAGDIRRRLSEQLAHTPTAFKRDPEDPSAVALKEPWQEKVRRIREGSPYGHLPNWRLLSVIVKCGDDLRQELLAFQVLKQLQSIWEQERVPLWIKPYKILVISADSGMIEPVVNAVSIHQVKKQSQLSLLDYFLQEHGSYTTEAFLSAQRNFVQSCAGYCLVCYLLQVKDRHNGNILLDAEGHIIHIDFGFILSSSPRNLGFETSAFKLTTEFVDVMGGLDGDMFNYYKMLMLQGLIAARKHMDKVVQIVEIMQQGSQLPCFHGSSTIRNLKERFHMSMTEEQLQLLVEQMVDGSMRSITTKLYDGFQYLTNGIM

Structure (SMILES) | pIC50
COCC1CCN(S(=O)(=O)c2ccc(C)c(-c3cnc(N)c(-c4cc(C)no4)c3)c2)CC1 [Example 19.18, 5-(5-((4-(methoxymethyl)piperidin-1-yl)sulfonyl)-2-methylphenyl)-3-(3-methylisoxazol-5-yl)pyridin-2-amine trifluoroacetic acid salt] | 5.42
COC[C@@H]1COCCN1S(=O)(=O)c1ccc(C)c(-c2cnc(N)c(-c3cc(C)no3)c2)c1 [Example 19.20, (R)-5-(5-((3-(methoxymethyl)morpho-lino)sulfonyl)-2-methylphenyl)-3-(3-methylisoxazol-5-yl)pyridin-2-amine trifluoroacetic acid salt] | 5.38
Cc1cc(-c2cc(-c3cc(S(=O)(=O)NCC4(CO)CCOCC4)ccc3C)cnc2N)on1 [Example 37.1, 3-(6-Amino-5-(3-methylisoxazol-5-yl)pyridin-3-yl)-N-((4-(hydroxymethyl)tetrahydro-2H-pyran-4-yl)methyl)-4-methylbenzenesulfonamide] | 5.46
Cc1noc(-c2cc(-c3cc(S(=O)(=O)NC[C@H]4CCCO4)ccc3C)cnc2N)n1 [Example 37.5, (R)-3-(6-Amino-5-(3-methyl-1,2,4-oxadiazol-5-yl)pyridin-3-yl)-4-methyl-N-((tetrahydrofuran-2-yl)methyl)benzenesulfonamide] | 5.10
COC1(C)CN(S(=O)(=O)c2ccc(C)c(-c3cnc(N)c(-c4cc(C)no4)c3)c2)C1 [Example 37.20, 5-(5-((3-Methoxy-3-methylazetidin-yl)sulfonyl)-2-methylphenyl)-3-(3-methylisoxazol-5-yl)pyridin-2-amine] | 5.29
Cc1noc(-c2cc(-c3cc(S(=O)(=O)NC(CO)C4CCOC4)ccc3C)cnc2N)n1 (stereo not shown) [Example 37.21, 3-(6-Amino-5-(3-methyl-1,2,4-oxadiazol-5-yl)pyridin-3-yl)-N-(2-hydroxy-1-(tetrahydrofuran-3-yl)ethyl)-4-methylbenzenesulfonamide] | < 5.00
Cc1noc(-c2cc(-c3cc(S(=O)(=O)N4CC[C@H](O)C4)ccc3C)cnc2N)n1 [Example 37.32, (S)-1-((3-(6-Amino-5-(3-methyl-1,2,4-oxadiazol-5-yl)pyridin-3-yl)-4-methylphenyl)sulfonyl)pyrrolidin-3-ol hydrochloride] | 5.07
Cc1noc(-c2cc(-c3cc(S(=O)(=O)NC4CCN(C(C)C)CC4)ccc3C)cnc2N)n1 [Example 37.34, 3-(6-Amino-5-(3-methyl-1,2,4-oxadiazol-5-yl)pyridin-3-yl)-N-(1-isopropylpiperidin-4-yl)-4-methylbenzenesulfonamide] | < 5.00
Cc1noc(-c2cc(-c3cc(S(=O)(=O)NCC(C)(F)F)ccc3C)cnc2N)n1 [Example 37.38, 3-(6-Amino-5-(3-methyl-1,2,4-oxadiazol-5-yl)pyridin-3-yl)-N-(2,2-difluoropropyl)-4-methylbenzenesulfonamide] | 5.12
Cc1ccc(S(=O)(=O)NCC(C)(C)O)cc1-c1cnc(N)c(-c2cc(C(=O)N3CCOCC3)no2)c1 [Example 42, 3-(6-Amino-5-(3-(morpholine-4-carbonyl)isoxazol-5-yl)pyridin-3-yl)-N-(2-hydroxy-2-methylpropyl)-4-methylbenzenesulfonamide] | 5.54
CONS(=O)(=O)c1ccc(C)c(-c2cnc(N)c(-c3nc(C)no3)c2)c1 [Example 46, 3-(6-Amino-5-(3-methyl-1,2,4-oxadiazol-5-yl)pyridin-3-yl)-N-methoxy-4-methylbenzenesulfonamide] | < 5.00
Cc1ccc(S(=O)(=O)NCC(C)(C)O)cc1-c1cnc(N)c(-c2ccn(C)c2)c1 [Example 58, 3-(6-Amino-5-(1-methyl-1H-pyrrol-3-yl)pyridin-3-yl)-N-(2-hydroxy-2-methylpropyl)-4-methylbenzenesulfonamide hydrochloride] | 5.49
Cc1noc(-c2cc(-c3cc(S(N)(=O)=O)ccc3C)cnc2N)n1 [Example 75, 3-(6-Amino-5-(3-methyl-1,2,4-oxadiazol-5-yl)pyridin-3-yl)-4-methylbenzenesulfonamide] | < 5.00
